pIC50: −log10 of the molar value.
Target: T1, human CCR-3 (Homo sapiens, UniProt P51677)
T1 construct: expressed in transfected cells; host or cells: rat basophil leukaemia (RBL-2H3) cells, membrane preparation
T1 sequence (P51677 1-355): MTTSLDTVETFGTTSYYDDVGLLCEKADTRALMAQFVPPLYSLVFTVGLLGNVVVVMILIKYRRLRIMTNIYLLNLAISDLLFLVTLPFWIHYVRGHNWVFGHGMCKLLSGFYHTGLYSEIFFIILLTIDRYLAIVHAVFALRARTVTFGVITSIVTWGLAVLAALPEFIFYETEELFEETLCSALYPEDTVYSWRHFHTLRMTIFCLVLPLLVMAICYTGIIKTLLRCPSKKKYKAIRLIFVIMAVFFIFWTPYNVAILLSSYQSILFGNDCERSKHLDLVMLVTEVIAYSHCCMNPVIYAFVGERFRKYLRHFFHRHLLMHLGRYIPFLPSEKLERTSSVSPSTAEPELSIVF
Assay: binding of [125I]-human eotaxin to human CCR3 (SPA, membranes of RBL-2H3 cells expressing CCR3)
Conditions: 4 hours at room temperature, read-out: IC50 value (inhibition of eotaxin binding to CCR3)
Procedure: In this assay the effect of the compounds of the present invention on the binding of human eotaxin to human CCR-3 is determined. Recombinant cells expressing human CCR3 are captured by wheatgerm agglutinin (WGA) polyvinyltoluidene (PVT) SPA beads (available from Amersham), through a specific interaction between the WGA and carbohydrate residues of glycoproteins on the surface of the cells. [^125I]-human eotaxin (available from Amersham) binds specifically to CCR3 receptors bringing the [^125I]-human eotaxin in close proximity to the SPA beads. Emitted […] from the [^125I]-human eotaxin excite, by its proximity, the fluorophore in the beads and produce light.
Preparation of Assay Buffer: 5.96 g HEPES and 7.0 g sodium chloride are dissolved in distilled H2O and 1M aqueous CaCl2 (1 ml) and 1M aqueous MgCl2 (5 ml) are added. The pH is adjusted to 7.6 with NaOH and the solution made to a final volume of 1 L using distilled H2O. 5 g of bovine serum albumin and 0.1 g NaN3 are dissolved in the solution and the resulting buffer stored at 4° C. […]
The assay is performed in a final volume of 250 μl per well of an Optiplate™ microplate (ex Canberra Packard). […] The resulting scintillations are counted using a Canberra Packard TopCount™ scintillation counter, each well being counted for 1 minute. […]

For O=C(C[n+]1cc(-c2ccc(Cl)c(Cl)c2)n2c1CCC2)Nc1ccc2c(c1)OCCO2 [Example 341], the pIC50 was 7.64.

For COc1ccc(OC)c(NC(=O)C[n+]2cc(-c3ccc(Cl)c(Cl)c3)n3c2CCC3)c1 [Example 322], the pIC50 was 7.68.

From patent US20080207718A1, “Use of Fused Imidazole Derivatives to Mediate Ccr3 Related Conditions” (priority 2005, published 2008)
